These are literature values, as cited in patent publication US20060216350A1, “Ganglionic blocking agents for the treatment of epithelial diseases” (priority 2005, published 2006).

The test system of the data set is hand warts. Particulars: patients with hand warts; Sterling et al. 2001.

With `O=C(O)c1ccccc1O` [Salicylic acid], the “clearance of warts, % of patients” value is 67%.
